Patent US9833497B2, “Human originated EGF domain proteins and use of the same” (CHENGDU SOURCEBIO LIMITED-LIABILITY COMPANY, priority 2013, dated 2017)

Experiments:
Type in all cases: cell-based
Proteus mirabilis = test: MIC against Gram-negative bacteria: Proteus mirabilis; details: 10 h cultivation at 37° C.; for MIC (μg/mL) P. mirabilis / MIC P. mirabilis: 5×10^5 CFU/mL; for MIC (μg/mL) P. mirabilis / MIC: P. mirabilis; for MIC P. mirabilis: two-fold serial dilution
Procedure, shortened: (§1)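 Two-fold serial dilutions of each purified human EGF domain protein, three replicate wells per level, were combined with bacteria at a final 5×10^5 CFU/mL in LB. Cultures were shaken at 175 rpm, 37° C. The MIC was taken as the minimum concentration preventing growth.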

Pseudomonas aeruginosa = test: MIC against Gram-negative bacteria: Pseudomonas aeruginosa; details: 10 h cultivation at 37° C.; for MIC (μg/mL) P. aeruginosa / MIC P. aeruginosa: 5×10^5 CFU/mL; for MIC (μg/mL) P. aeruginosa / MIC: P. aeruginosa; for MIC P. aeruginosa: two-fold serial dilution
Procedure, shortened: as §1

Enterobacter cloacae = test: MIC against Gram-negative bacteria: Enterobacter cloacae; details: 10 h cultivation at 37° C.; for MIC (μg/mL) E. cloacae / MIC E. cloacae: 5×10^5 CFU/mL; for MIC (μg/mL) E. cloacae / MIC: E. cloacae; for MIC E. cloacae: two-fold serial dilution
Procedure, shortened: as §1

Serratia marcescens = test: MIC against Gram-negative bacteria: Serratia marcescens; details: 10 h cultivation at 37° C.; for MIC (μg/mL) S. marcescens / MIC S. marcescens: 5×10^5 CFU/mL; for MIC (μg/mL) S. marcescens / MIC: S. marcescens; for MIC S. marcescens: two-fold serial dilution
Procedure, shortened: as §1

E. coli BL21 = test: MIC against Gram-negative bacteria: E. coli BL21; details: 10 h cultivation at 37° C.; for MIC (μg/mL) E. coli BL21 / MIC E. coli BL21: 5×10^5 CFU/mL; for MIC (μg/mL) E. coli BL21 / MIC: E. coli BL21; for MIC E. coli BL21: two-fold serial dilution
Procedure, shortened: as §1

Proteus vulgaris = test: MIC against Gram-negative bacteria: Proteus vulgaris; details: 10 h cultivation at 37° C.; for MIC (μg/mL) P. vulgaris / MIC P. vulgaris: 5×10^5 CFU/mL; for MIC (μg/mL) P. vulgaris / MIC: P. vulgaris; for MIC P. vulgaris: two-fold serial dilution
Procedure, shortened: as §1

E. coli DH5α = test: Antibacterial activity: MIC and growth curve against E. coli DH5α in 96-well plate; details: minimal inhibitory concentration against E. coli DH5α; 96-well plate, 5×10^5 CFU/mL, 37° C., judged after 8 h
Procedure, shortened: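 Log-phase DH5α (OD600 about 0.5, 37° C, 185 rpm in LB) was pelleted, resuspended in fresh LB and seeded at 5×10^5 CFU/mL with recombinant protein at 50, 25 and 12.5 μg/mL (two-fold series), in triplicate. Plates were shaken at 175 rpm, 37° C, and OD600 was read every 30 min. MIC was the lowest concentration with no growth.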

Moraxella catarrhalis = test: MIC against Gram-negative bacteria: Moraxella catarrhalis; details: 10 h cultivation at 37° C.; for MIC (μg/mL) M. catarrhalis / MIC M. catarrhalis: 5×10^5 CFU/mL; for MIC (μg/mL) M. catarrhalis / MIC: M. catarrhalis; for MIC M. catarrhalis: two-fold serial dilution
Procedure, shortened: as §1

Klebsiella pneumonia = test: MIC against Gram-negative bacteria: Klebsiella pneumonia; details: 10 h cultivation at 37° C.; for MIC (μg/mL) K. pneumonia / MIC K. pneumonia: 5×10^5 CFU/mL; for MIC (μg/mL) K. pneumonia / MIC: K. pneumonia; for MIC K. pneumonia: two-fold serial dilution
Procedure, shortened: as §1

Citrobacter diversus = test: MIC against Gram-negative bacteria: Citrobacter diversus; details: 10 h cultivation at 37° C.; for MIC (μg/mL) C. diversus / MIC C. diversus: 5×10^5 CFU/mL; for MIC (μg/mL) C. diversus / MIC: C. diversus; for MIC C. diversus: two-fold serial dilution
Procedure, shortened: as §1

Aeromonas hydrophila = test: MIC against Gram-negative bacteria: Aeromonas hydrophila; details: 10 h cultivation at 37° C.; for MIC (μg/mL) A. hydrophila / MIC A. hydrophila: 5×10^5 CFU/mL; for MIC (μg/mL) A. hydrophila / MIC: A. hydrophila; for MIC A. hydrophila: two-fold serial dilution
Procedure, shortened: as §1

Row | Substance | MIC (μg/mL) P. mirabilis (Proteus mirabilis) | MIC (μg/mL) P. aeruginosa (Pseudomonas aeruginosa) | MIC (μg/mL) E. cloacae (Enterobacter cloacae) | MIC (μg/mL) S. marcescens (Serratia marcescens) | MIC (μg/mL) E. coli BL21 (E. coli BL21) | MIC (μg/mL) P. vulgaris (Proteus vulgaris) | MIC (E. coli DH5α) | MIC (μg/mL) M. catarrhalis (Moraxella catarrhalis) | MIC (μg/mL) K. pneumonia (Klebsiella pneumonia) | MIC (μg/mL) C. diversus (Citrobacter diversus) | MIC (μg/mL) A. hydrophila (Aeromonas hydrophila) | MIC (Proteus mirabilis) | MIC (Pseudomonas aeruginosa) | MIC (Enterobacter cloacae) | MIC (Serratia marcescens) | MIC (E. coli BL21) | MIC (Proteus vulgaris) | MIC (Moraxella catarrhalis) | MIC (Klebsiella pneumonia) | MIC (Citrobacter diversus) | also measured
1 | PRT183 (ECIPHNGCRHGTCSTPWQCTCDEGWGGLFCD; listed as Homo sapiens) | 12.5 µg/mL | 12.5 µg/mL | 12.5 µg/mL | 12.5 µg/mL | 12.5 µg/mL | 25 µg/mL | 12.5 µg/mL | 25 µg/mL | 25 µg/mL | 12.5 µg/mL | 25 µg/mL | – | – | – | – | – | – | – | – | – | –
2 | PRT927 (DIDDCSSTPCLNGAKCIDHPNGYECQCATGFTGVLCE; listed as Homo sapiens) | – | – | – | – | – | – | 25 µg/mL | – | – | – | – | 25 µg/mL | 25 µg/mL | 25 µg/mL | 50 µg/mL | 50 µg/mL | 12.5 µg/mL | 50 µg/mL | 12.5 µg/mL | 12.5 µg/mL | MIC (Aeromonas hydrophila): 50 µg/mL
3 | PRT1139 (RYNLCDLLHNPCRNNSTCLALVDANQHCICREEFEGKNCE; listed as Homo sapiens) | – | – | – | – | – | – | 12.5 µg/mL | – | – | – | – | – | – | – | – | – | – | – | – | – | MIC P. mirabilis (Proteus mirabilis): 50 µg/mL; MIC P. aeruginosa (Pseudomonas aeruginosa): 12.5 µg/mL; MIC E. cloacae (Enterobacter cloacae): 50 µg/mL; MIC S. marcescens (Serratia marcescens): 25 µg/mL; MIC E. coli BL21 (E. coli BL21): 25 µg/mL; MIC P. vulgaris (Proteus vulgaris): 12.5 µg/mL; MIC M. catarrhalis (Moraxella catarrhalis): 12.5 µg/mL; MIC K. pneumonia (Klebsiella pneumonia): 25 µg/mL; MIC C. diversus (Citrobacter diversus): 50 µg/mL; MIC A. hydrophila (Aeromonas hydrophila): 12.5 µg/mL
4 | PRT754 (IQDLCAMEDHNCEQLCVNVPGSFVCQCYSGYALAEDGKRCV; listed as Homo sapiens) | 12.5 µg/mL | 50 µg/mL | 12.5 µg/mL | 25 µg/mL | 12.5 µg/mL | 50 µg/mL | 25 µg/mL | 25 µg/mL | 25 µg/mL | 50 µg/mL | 25 µg/mL | – | – | – | – | – | – | – | – | – | –
5 | PRT1158 (IQTSCESFPLRNNATCKKCEKDYPCSCISGFTEKNCE; listed as Homo sapiens) | – | – | – | – | – | – | 25 µg/mL | – | – | – | – | – | – | – | – | – | – | – | – | – | MIC P. mirabilis (Proteus mirabilis): 12.5 µg/mL; MIC P. aeruginosa (Pseudomonas aeruginosa): 25 µg/mL; MIC E. cloacae (Enterobacter cloacae): 12.5 µg/mL; MIC S. marcescens (Serratia marcescens): 25 µg/mL; MIC E. coli BL21 (E. coli BL21): 12.5 µg/mL; MIC P. vulgaris (Proteus vulgaris): 50 µg/mL; MIC M. catarrhalis (Moraxella catarrhalis): 50 µg/mL; MIC K. pneumonia (Klebsiella pneumonia): 50 µg/mL; MIC C. diversus (Citrobacter diversus): 12.5 µg/mL; MIC A. hydrophila (Aeromonas hydrophila): 50 µg/mL
6 | PRT1025 (GHNYCSVNNGGCTHLCLATPGSRTCRCPDNTLGVDCI; listed as Homo sapiens) | – | – | – | – | – | – | 50 µg/mL | – | – | – | – | 12.5 µg/mL | 12.5 µg/mL | 50 µg/mL | 50 µg/mL | 25 µg/mL | 25 µg/mL | 25 µg/mL | 25 µg/mL | 50 µg/mL | MIC (Aeromonas hydrophila): 100 µg/mL
